Assay [1] deals with T1, GFP-tagged Ndc80 complex (Ndc80-GFP) (Homo sapiens, UniProt O14777).
T1 construct: with Kinetochore protein Nuf2; Kinetochore protein Spc25; Kinetochore protein Spc24
Description: single-molecule TIRF, residence time of Ndc80-GFP on microtubules. In kind it is biochemical. Particulars: 10 μM VTT-006; Taxol-stabilized microtubules, BRB80 pH 6.9; Ndc80 6–10 pM.

In assay [2] the target is T2, recombinant Ndc80 complex (Bonsai; Ndc80^bonsai) (Homo sapiens, UniProt O14777).
T2 construct: Ndc80 bonsai: globular domains with shortened rod; plasmid from A. Musacchio; E. coli BL21(DE3), GST cut off with PreScission; with Kinetochore protein Nuf2; Kinetochore protein Spc25; Kinetochore protein Spc24
T2 sequence (O14777 1-286 limits assumed): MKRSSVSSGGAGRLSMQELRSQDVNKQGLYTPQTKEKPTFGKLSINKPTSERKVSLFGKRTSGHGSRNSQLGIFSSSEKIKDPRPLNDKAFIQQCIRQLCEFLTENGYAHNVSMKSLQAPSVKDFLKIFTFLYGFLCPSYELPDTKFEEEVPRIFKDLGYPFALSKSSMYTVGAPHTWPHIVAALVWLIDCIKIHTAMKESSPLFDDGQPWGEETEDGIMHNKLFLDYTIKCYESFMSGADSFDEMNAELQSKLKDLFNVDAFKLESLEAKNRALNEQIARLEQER
T2 sequence (Q9BZD4 1-169 partner limits assumed): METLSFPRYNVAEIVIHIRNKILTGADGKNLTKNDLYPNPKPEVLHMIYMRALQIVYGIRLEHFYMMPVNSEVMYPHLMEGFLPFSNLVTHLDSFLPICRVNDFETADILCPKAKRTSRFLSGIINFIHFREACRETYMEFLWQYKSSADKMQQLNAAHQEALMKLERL
T2 sequence (Q9HBM1 118-224 partner limits assumed): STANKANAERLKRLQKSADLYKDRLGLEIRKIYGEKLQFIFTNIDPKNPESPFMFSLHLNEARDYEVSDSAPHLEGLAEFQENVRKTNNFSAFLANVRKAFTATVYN
T2 sequence (Q8NBT2 122-197 partner limits assumed): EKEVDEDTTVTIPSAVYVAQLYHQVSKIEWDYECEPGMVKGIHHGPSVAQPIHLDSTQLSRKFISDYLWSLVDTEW
The assay can be described thus: fluorescence anisotropy of the compound (ex […] nm, em […] nm). The assay is classed as binding. Particulars: PBS, 23 °C; 5 μM VTT-006, 1–15 μM protein; one site model with ligand depletion. For orientation: Polarisation of emitted light reports the rotation of a fluorescent probe.

SMILES strings stand for the structures.

Broadly, the Kd is the constant that tells how readily two partners part at equilibrium.

T1 sequence (O14777 whole entry): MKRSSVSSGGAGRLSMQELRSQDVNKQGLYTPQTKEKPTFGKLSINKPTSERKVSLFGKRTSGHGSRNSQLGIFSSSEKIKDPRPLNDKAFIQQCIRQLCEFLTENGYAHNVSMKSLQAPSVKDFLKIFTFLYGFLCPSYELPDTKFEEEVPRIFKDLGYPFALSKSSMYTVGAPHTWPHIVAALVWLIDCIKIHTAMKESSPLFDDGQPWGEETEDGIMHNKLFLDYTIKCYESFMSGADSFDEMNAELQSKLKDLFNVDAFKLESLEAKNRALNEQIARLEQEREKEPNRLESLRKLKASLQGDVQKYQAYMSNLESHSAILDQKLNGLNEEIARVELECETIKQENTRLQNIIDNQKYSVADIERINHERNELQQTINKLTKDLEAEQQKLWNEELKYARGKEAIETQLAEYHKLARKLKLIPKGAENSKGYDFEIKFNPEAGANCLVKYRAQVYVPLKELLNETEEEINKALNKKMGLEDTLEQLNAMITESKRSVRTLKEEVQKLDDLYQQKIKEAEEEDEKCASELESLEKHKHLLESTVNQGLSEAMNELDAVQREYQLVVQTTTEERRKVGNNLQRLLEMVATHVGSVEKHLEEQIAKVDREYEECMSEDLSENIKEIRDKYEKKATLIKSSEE
T1 sequence (Q9BZD4 whole entry partner): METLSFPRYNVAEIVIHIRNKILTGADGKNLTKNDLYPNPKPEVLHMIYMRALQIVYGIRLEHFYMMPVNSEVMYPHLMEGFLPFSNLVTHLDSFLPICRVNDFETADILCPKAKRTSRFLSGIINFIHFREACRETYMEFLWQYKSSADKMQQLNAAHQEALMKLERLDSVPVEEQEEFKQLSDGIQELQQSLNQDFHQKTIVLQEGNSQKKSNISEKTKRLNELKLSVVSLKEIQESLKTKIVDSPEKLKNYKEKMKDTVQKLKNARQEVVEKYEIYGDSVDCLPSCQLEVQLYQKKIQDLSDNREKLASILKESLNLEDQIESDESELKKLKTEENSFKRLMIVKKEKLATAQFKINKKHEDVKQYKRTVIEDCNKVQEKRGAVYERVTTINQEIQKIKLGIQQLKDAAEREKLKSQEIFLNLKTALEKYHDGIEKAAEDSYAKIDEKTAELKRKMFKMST
T1 sequence (Q8NBT2 whole entry partner): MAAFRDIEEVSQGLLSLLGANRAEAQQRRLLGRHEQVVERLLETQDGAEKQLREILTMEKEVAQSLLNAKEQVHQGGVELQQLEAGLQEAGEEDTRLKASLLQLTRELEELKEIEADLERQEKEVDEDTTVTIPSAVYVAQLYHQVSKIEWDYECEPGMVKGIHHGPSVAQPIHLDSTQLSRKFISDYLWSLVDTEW
T1 sequence (Q9HBM1 whole entry partner): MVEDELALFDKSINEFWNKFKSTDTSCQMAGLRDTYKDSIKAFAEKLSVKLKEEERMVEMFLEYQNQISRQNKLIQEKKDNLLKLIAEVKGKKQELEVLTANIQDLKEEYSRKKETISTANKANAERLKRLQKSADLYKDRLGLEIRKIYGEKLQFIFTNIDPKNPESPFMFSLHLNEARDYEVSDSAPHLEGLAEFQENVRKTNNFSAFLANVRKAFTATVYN

For the compound `CC#CC(=O)N1CCc2c([nH]c3ccccc23)C1c1ccc(OC)c(C)c1` (stereo not drawn) [VTT-006, 2-(2-butynoyl)-1-(4-methoxy-3-methylphenyl)-2,3,4,9-tetrahydro-1H-beta-carboline], in assay [1], the koff entry is “residence time of Ndc80-GFP on microtubules was significantly shorter in the presence of VTT-006”. Moreover, the Kd in assay [2] worked out at 2070 ± 2840 nM.

Source of the values: article PMC8667816, “VTT-006, an anti-mitotic compound, binds to the Ndc80 complex and suppresses cancer cell growth in vitro” (Oncoscience, 2021).
